In patent publication US5952376A, “Trienyl compounds” (The Trustees of the University of Pennsylvania, priority 1997, dated 1999):

How the values were obtained:
BXPC-3 = assay: Antitumor Activity (in vitro), Pancreas-a BXPC-3; type: cell-based; settings: Homo sapiens
Experimental: (§1) Trienes (+)-3a and (+)-3b were tested for antitumor activity generally in accordance with the procedure described by Bai, et al., Biochemistry 1995, 34, 9714.

SK-N-SH = assay: Antitumor Activity (in vitro), Neuroblast SK-N-SH; type: cell-based; settings: Homo sapiens
Experimental: as §1

SW 1736 = assay: Antitumor Activity (in vitro), Thyroid ca SW 1736; type: cell-based; settings: Homo sapiens
Experimental: as §1

NCI-H460 = assay: Antitumor Activity (in vitro), Lung-NSC NCI-H460; type: cell-based; settings: Homo sapiens
Experimental: as §1

FADU = assay: Antitumor Activity (in vitro), Pharynx-sq FADU; type: cell-based; settings: Homo sapiens
Experimental: as §1

DU-145 = assay: Antitumor Activity (in vitro), Prostate DU-145; type: cell-based; settings: Homo sapiens
Experimental: as §1

human cancer cell lines = assay: antitumor activity against a series of human cancer cell lines; type: cell-based
Experimental: as §1

[1] = system: chemoresistant tumor types, including human melanoma and lung, colon, and brain cancers; settings: cited from earlier work
tubulin = settings: cited from earlier work
microtubule assembly = settings: cited from earlier work
mitosis = settings: cited from earlier work

Row | GI50 (BXPC-3) [nM] | GI50 (SK-N-SH) [nM] | GI50 (SW 1736) [nM] | GI50 (NCI-H460) [nM] | GI50 (FADU) [nM] | GI50 (DU-145) [nM] | Molecule | antitumor activity (human cancer cell lines) | activity against chemoresistant tumor types [1] | binding to tubulin (tubulin) | blocking microtubule assembly (microtubule assembly) | inhibition of mitosis (mitosis)
1 | 5300 | 3600 | 9600 | 11000 | 8300 | > 16000 | C=C(Cl)/C=C/C(O)CC(=C)C[C@H]1OC(OC)[C@H](OCc2ccccc2)[C@@H](OCc2ccccc2)[C@@H]1OCc1ccccc1 (single isomer, unassigned) [Triene 3b] | active | – | – | – | –
2 | – | – | – | – | – | – | Spongistatin 1 | – | active | binding to tubulin | blocking microtubule assembly | inhibits mitosis
3 | 440 | 540 | 1200 | 460 | 470 | 560 | C=C/C=C/C(O)CC(=C)C[C@H]1OC(OC)[C@H](OCc2ccccc2)[C@@H](OCc2ccccc2)[C@@H]1OCc1ccccc1 (single isomer, unassigned) [Triene 3a] | active | – | – | – | –
